The supplement of paper PMC10307832

Columns and labels:
Test in all cases: relative viability (nuclei count vs DMSO), 5 days (fraction); higher = more cells survive
Irinotecan = compound: CCc1c2c(nc3ccc(OC(=O)N4CCC(N5CCCCC5)CC4)cc13)-c1cc3c(c(=O)n1C2)COC(=O)[C@]3(O)CC [Irinotecan]
Summary of the method: (§1)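 For viability, nuclei in each treated well were divided by nuclei in vehicle wells and the median across plates was taken. Lung cancer cell lines in 1536-well plates were pinned with five library-drug doses (not always all listed) spaced by √10, cultured 5 days without medium change, and imaged at 4× after Hoechst staining, with plates passing only at control CV below 25% and at least one doubling.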

RU-SKI 43 = compound: CC[C@@H](C)CNCC(=O)N1CCC2=C([C@@H]1COC3=CC=CC(=C3)C)C=CS2 [RU-SKI 43]
Summary of the method: as §1

MK-8033 = compound: Cn1cc(-c2cnc3ccc4ccc(CS(=O)(=O)NCc5ccccn5)cc4c(=O)c3c2)cn1 [MK-8033]
Summary of the method: as §1

RU-SKI 43 + Foretinib = compound: CC[C@@H](C)CNCC(=O)N1CCC2=C([C@@H]1COC3=CC=CC(=C3)C)C=CS2 [RU-SKI 43] + COc1cc2c(Oc3ccc(NC(=O)C4(C(=O)Nc5ccc(F)cc5)CC4)cc3F)ccnc2cc1OCCCN1CCOCC1 [Foretinib] (partner 0.25 µM)
Summary of the method: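 Cells from lung cancer lines were seeded into 1536-well plates and, one day later, dosed by pin tool. Treatments were either a single drug or a fixed dose of an anchor drug with five library-drug doses (not always all listed) in √10 steps. After 5 days, nuclei were stained in a one-step fixation (final 0.05% Triton X-100, 1% formaldehyde, 1 ug/ml Hoechst) and counted on 4× images, and relative viability is the treated-to-vehicle nuclei ratio, as the median of duplicate plates.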

Cell Line	relative viability (Irinotecan; 0.6325 µM)	relative viability (Irinotecan; 2 µM)	relative viability (Irinotecan; 6.325 µM)	relative viability (Irinotecan; 20 µM)	relative viability (RU-SKI 43; 0.1 µM)	relative viability (RU-SKI 43; 0.3162 µM)	relative viability (RU-SKI 43; 1 µM)	relative viability (RU-SKI 43; 3.162 µM)	relative viability (RU-SKI 43; 10 µM)	relative viability (MK-8033; 0.02 µM)	relative viability (MK-8033; 0.06325 µM)	relative viability (MK-8033; 0.2 µM)	relative viability (MK-8033; 0.6325 µM)	relative viability (MK-8033; 2 µM)	relative viability (RU-SKI 43 + Foretinib; first compound 0.1 µM)	relative viability (RU-SKI 43 + Foretinib; first compound 0.3162 µM)	relative viability (RU-SKI 43 + Foretinib; first compound 1 µM)	relative viability (RU-SKI 43 + Foretinib; first compound 3.162 µM)	relative viability (RU-SKI 43 + Foretinib; first compound 10 µM)
NCI-H522	0.694	0.844	0.52	0.639	1.02	1.05	1.16	0.982	1.17	0.983	0.793	0.954	1.05	0.959	–	–	–	–	–
NCI-H358	0.744	0.66	0.323	0.169	0.94	1.19	0.922	0.97	0.898	0.961	0.751	0.917	0.958	0.806	0.631	0.749	0.829	0.776	0.489
NCI-H1755	0.966	0.984	0.433	0.408	1.03	1.03	1.1	1.1	1	0.982	1.02	0.945	0.973	0.974	0.935	1.07	0.975	0.979	0.919
LCLC-103H	0.945	0.929	0.451	0.423	1.05	1.07	1.18	1.06	1.03	0.99	1	0.896	0.997	1.06	0.759	0.896	0.91	0.843	0.783
HOP-62	0.558	0.714	0.194	0.2	1.05	0.986	1.11	1.09	1.09	1	0.976	0.98	0.989	0.973	1.1	1.2	1.15	1.24	1.13
HCC-78	0.8	0.686	0.24	0.326	1.01	0.961	1.2	0.944	0.911	0.959	0.895	0.863	0.982	0.926	0.541	0.6	0.592	0.591	0.479
NCI-H650	0.648	0.794	0.259	0.241	0.968	0.9	1.13	0.758	1.05	0.985	0.977	1.06	0.954	0.906	1.05	1.02	1.1	1.09	1.08
NCI-H1563	1.02	1.01	0.974	0.601	0.965	0.928	0.966	1.06	0.852	0.975	0.918	0.927	0.988	0.98	0.918	0.985	0.957	0.855	0.755
ABC-1	–	0.956	0.496	0.21	1.06	0.985	1.33	0.984	0.85	0.972	0.861	0.886	0.965	1.04	1.04	1.05	1.04	1.06	0.754
Calu-6	0.724	0.59	0.247	0.133	0.948	1.21	1.07	1.08	0.966	1.02	0.906	0.923	1.06	1	0.958	0.976	0.973	0.859	0.724
EBC-1	0.618	0.44	0.345	0.179	0.863	1.13	1.1	0.989	0.635	0.973	0.943	0.965	0.928	0.386	0.103	0.0955	0.101	0.0987	0.109
NCI-H520	0.898	0.726	0.365	0.325	1.07	1.08	1.09	1.06	0.938	1.06	0.98	1.01	1.03	0.928	0.816	0.892	0.812	0.859	0.539
NCI-H322M	0.8	0.754	0.503	0.385	0.985	0.945	1.05	0.939	0.978	0.952	0.766	0.878	0.957	0.929	0.939	1.09	1.11	1.03	0.892
201T	–	0.996	0.467	0.33	1.03	0.973	1.08	1.05	0.981	0.967	0.974	0.9	0.976	0.963	1.04	1.11	1.12	1.07	1.01
RERF-LC-KJ	0.871	0.839	0.542	0.373	1.04	1.12	1.05	1.01	0.937	0.999	1.01	0.934	1.01	0.948	0.849	0.976	0.812	0.959	0.913
A549	0.943	0.78	0.2	0.0915	1	1.12	1.13	0.939	0.9	0.996	0.932	0.93	0.913	0.943	1.12	1.1	1.06	0.93	0.852
NCI-H1648	1.03	0.712	0.637	0.278	0.943	0.809	1.03	0.853	0.779	0.724	0.698	0.846	0.832	0.956	–	–	–	–	–
